Source: US6342516B1, “Phenylazole compounds, process for producing the same and drugs for hyperlipemia” (Nippon Soda Co., Ltd., priority 1998, dated 2002)

System: cholesterol-fed hamsters
Experiment: Effect on serum lipids of cholesterol-fed hamsters (serum total cholesterol and triglyceride reduction rate)
Assay type: in vivo
Details: cholesterol-fed Syrian hamsters, oral once a day for 5 days, dose 6.25 mg/kg
Method: Pharmacological Test Example 1: Effect on serum lipids of cholesterol-fed hamsters
Syrian hamsters (Std:Syrian, Male, 4 weeks old) were freely fed with chow containing 1% cholesterol and 10% coconut oil for 3 weeks ad libitum.
At the last week of feeding, each of the test compounds was dissolved or suspended in either 0.1% hydrochloric acid solution or 1% polyethylene-hydrogenated castor oil (NIKKOL HCO-60) solution and was orally administrated to hamsters once a day for 5 days. For the hamsters of the control group, only the solvent was orally administered. Then, blood was collected from the abdominal vein under the condition of anesthesia with pentobarbital at 2-4 hours after the last administration, and the serum in the blood was separated. The serum total cholesterol value and the serum triglyceride value were determined by using autobiochemical analyzer with analizing kits, and reduction rate of the serum lipids was determined according to the equation indicated below based on the analyzed values for respective hamster groups.
Serum lipids reduction rate (%)=(Amount of serum lipids of the control group−Amount of serum lipids of the group administrated with the test compound)/Amount of serum lipids of the control group×100

| Compound | Serum lipids reduction rate comparing to Control group (%), Means of 3 animals: Total cholesterol [%] | Serum lipids reduction rate comparing to Control group (%), Means of 3 animals: Triglyceride [%] |
| --- | --- | --- |
| O=C(Nc1ccc(-n2ccnc2)cc1)c1cccnc1 [4-26] | 22 | 48 |

Same assay, conditions: cholesterol-fed Syrian hamsters, oral once a day for 5 days, dose 12.5 mg/kg

| Compound | Serum lipids reduction rate comparing to Control group (%), Means of 3 animals: Total cholesterol [%] | Serum lipids reduction rate comparing to Control group (%), Means of 3 animals: Triglyceride [%] |
| --- | --- | --- |
| COc1ccc2c(c1)cc(C(=O)Nc1ccc(-n3ccnc3)cc1)n2C [4-6] | 41 | 71 |
| O=C(Nc1ccc(-n2ccnc2)cc1)c1cnc2ccccc2n1 [4-37] | 26 | 25 |
| O=C(COc1cnc2ccccc2n1)Nc1ccc(-n2ccnc2)cc1 [4-79] | 29 | 45 |
| O=C(Nc1ccc(-n2ccnc2)cc1)c1cc2ccccc2[nH]1 [4-2] | 32 | 45 |
| O=C(Nc1ccc(-n2ccnc2)cc1)c1ccc(Cl)nc1 [4-25] | 25 | 52 |
| O=C(Nc1ccc(-n2ccnc2)cc1)c1ccccn1 [4-24] | 30 | 25 |
| Cn1c(CCC(=O)Nc2ccc(-n3ccnc3)cc2)nc2ccccc21 [4-97] | 26 | 33 |
| CC(C)c1cc(C(=O)Nc2ccc(-n3ccnc3)cc2)cc(O)n1 [4-28] | 24 | 34 |
| O=C(Nc1ccc(-n2ccnc2)cc1)c1cnccn1 [4-33] | 35 | 44 |
| O=C(Nc1ccc(-n2ccnc2)cc1)c1ccc[nH]1 [4-38] | 32 | 31 |
| Cc1cc(C(=O)Nc2ccc(-n3ccnc3)cc2)[nH]n1 [4-15] | 37 | 73 |
| Cn1c(C(=O)Nc2ccc(-n3ccnc3)cc2)cc2ccccc21 [4-4] | 23 | 32 |

Same assay, conditions: cholesterol-fed Syrian hamsters, oral once a day for 5 days, dose 25 mg/kg

| Compound | Serum lipids reduction rate comparing to Control group (%), Means of 3 animals: Total cholesterol [%] | Serum lipids reduction rate comparing to Control group (%), Means of 3 animals: Triglyceride [%] |
| --- | --- | --- |
| O=C(Nc1ccc(-n2ccnc2)cc1)c1n[nH]c2ccccc12 [4-34] | 37 | 39 |
| CC1(C(=O)Nc2ccc(-n3ccnc3)cc2)Cc2ccccc2O1 (racemic) [4-12] | 27 | 41 |
| COc1cccc2cc(C(=O)Nc3ccc(-n4ccnc4)cc3)oc12 [4-63] | 26 | 29 |
| O=C(Nc1ccc(-n2ccnc2)cc1)C1COc2ccccc2O1 (stereo not shown) [4-70] | 34 | 48 |
| O=C(Nc1ccc(-n2ccnc2)cc1)c1ccco1 [4-48] | 76 | 85 |
| O=C(COc1ccc2ncccc2c1)Nc1ccc(-n2ccnc2)cc1 [4-73] | 34 | 50 |
| O=C(CSc1cnccn1)Nc1ccc(-n2ccnc2)cc1 [4-87] | 34 | 37 |
| O=C(CN1C(=O)COc2ccccc21)Nc1ccc(-c2cn[nH]c2)cc1 [4-92] | 29 | 34 |
| Cn1cccc1C(=O)Nc1ccc(-n2ccnc2)cc1 [4-39] | 25 | 45 |
| O=C(Nc1ccc(-n2ccnc2)cc1)c1ccc2ccc(O)nc2c1 [4-44] | 21 | 31 |
| O=C(Nc1ccc(-n2ccnc2)cc1)c1ccc2c(c1)OCO2 [4-21] | 51 | 57 |
| O=C(CCOC1CCOC1)Nc1ccc(-n2ccnc2)cc1 (stereo not shown) [4-104] | 25 | 38 |
| O=C(CC1CCc2sccc2C1=O)Nc1ccc(-n2ccnc2)cc1 (stereo not shown) [4-72] | 37 | 53 |
| Cn1ccc(C(=O)Nc2ccc(-n3ccnc3)cc2)c1 [4-3] | 75 | 91 |
| O=C(Nc1ccc(-n2ccnc2)cc1)c1cc2ccccc2o1 [4-31] | 46 | 59 |
| O=C(Nc1ccc(-n2ccnc2)cc1)c1cnc2ccccc2c1 [4-66] | 55 | 66 |
| O=C(Nc1ccc(-n2ccnc2)cc1)c1ccc2ccccc2n1 [4-41] | 50 | 67 |

| Compound | Serum lipids reduction rate comparing to Control group (%), Means of 3 animals: Total cholesterol [%] | Serum lipids reduction rate comparing to Control group (%), Means of 3 animals: Triglyceride [%] |
| --- | --- | --- |
| CC(C)(C)c1cc(C(=O)Nc2ccc(-n3ccnc3)cc2)[nH]n1 [4-16] | 34 | 34 |
| Cc1ccc2ccc(C(=O)Nc3ccc(-n4ccnc4)cc3)cn12 [4-71] | 45 | 62 |
| O=C(Nc1ccc(-n2ccnc2)cc1)c1cc2cc(F)ccc2[nH]1 [4-9] | 44 | 61 |
| O=C(Nc1ccc(-n2ccnc2)cc1)C1CCc2ccccc2O1 (racemic) [4-11] | 43 | 47 |
| O=C(COc1nccc(C(F)(F)F)n1)Nc1ccc(-n2ccnc2)cc1 [4-103] | 35 | 46 |
| O=C(Nc1ccc(-n2ccnc2)cc1)c1nccc2ccccc12 [4-22] | 48 | 61 |
| CC12CCC(C(=O)Nc3ccc(-n4ccnc4)cc3)(OC1=O)C2(C)C (stereo not shown) [4-19] | 19 | 50 |
| O=C(COc1ncccn1)Nc1ccc(-n2ccnc2)cc1 [4-101] | 41 | 38 |
| Cc1cc(=O)oc2cc(OCC(=O)Nc3ccc(-n4ccnc4)cc3)ccc12 [4-88] | 39 | 53 |
| O=C(COc1cccnc1)Nc1ccc(-n2ccnc2)cc1 [Compound No. 4-85] | 39 | 44 |
| O=C(COc1ccc2c(c1)OCO2)Nc1ccc(-n2ccnc2)cc1 [4-80] | 40 | 52 |
| O=C(CCc1cccnc1)Nc1ccc(-n2ccnc2)cc1 [4-90] | 22 | 36 |
| O=C(Cn1c(=O)ccc2ccccc21)Nc1ccc(-c2ccn[nH]2)cc1 [4-91] | 37 | 48 |
| Cc1cc(C(=O)Nc2ccc(-n3ccnc3)cc2)n(C)n1 [4-14] | 66 | 42 |
| O=C(Nc1ccc(-n2ccnc2)cc1)c1ccncc1 [4-27] | 40 | 46 |
| Cc1ccc2[nH]c(C(=O)Nc3ccc(-n4ccnc4)cc3)cc2c1 [4-7] | 27 | 31 |
| O=C1CCC(C(=O)Nc2ccc(-n3ccnc3)cc2)=NN1 [4-46] | 52 | 45 |
